For one data set, the system named is prostate of male rats. Put plainly: Model study in male rats: moisture content of the prostate after 21 days. The data set is classed as in vivo. As to the method:
(§1) A model study was performed in which both 17β-estradiol and 14α,15α-methylene-1,3,5(10),8-tetraene-3,17α-diol were administered to male rats. The purpose of this study was to compare the extent of the undersirable side effects produced in males (in this case male rats as a model) that are produced by administration of an estrogen, namely 17β-estradiol, and by 14α, 15α-methylene-1,3,5(10),8-tetraene-3,17α-diol, an effective ingredient of the present invention.
(§2) Respective amounts of 17β-estradiol and 14α,15α-methylene-1,3,5(10),8-tetraene-3,17α-diol equivalent to 0.04 mg/kg body weight were administered over a 21 day period to the male rats in corresponding groups of male rats. These amounts were administered daily over the 21 day period to individual male rats subcutaneously. Eight male rats were in each group.
(§3) The moisture content in the prostate and seminal vesicles of each tested male rat was measured at the end of the 21 day test period. The experimental error estimate is shown with the “T” at the top of each bar in the respective bar graphs.

Data set [1] concerns seminal vesicles of male rats. The experiment in a line: Model study in male rats: moisture content of the seminal vesicles after 21 days. In kind it is in vivo. As to the method: as §1, §2, §3
The subject of data set [2] is female test subjects treated with Decapeptyl-Depot for endometriosis. The experiment in a line: Clinical study in women with endometriosis under GnRHa therapy (Decapeptyl-Depot). In kind it is in vivo, human. How it is done: Here clinical studies in women with endometriosis are reported.
(§4) The effectiveness of injected Decapeptyl-Depot (Ferring Arzneimittel GmbH, Kiel, Germany) in a dose of 3.2 mg of Triptorelin intramuscularly at intervals of four weeks and 1 to 2 mg of 14α,15α-methylene-1,3,5(10),8-tetraene-3,17α-diol daily, given in the form of a vaginal suppository of 1 mg of 14α,15α-methylene-1,3,5(10),8-tetraene-3,17α-diol each, was tested in fourteen female test subjects aged 22 to 38, who were being treated with Decapeptyl-Depot for endometriosis for at least six months.
The treatment with 14α,15α-methylene-1,3,5(10),8-tetraene-3,17α-diol was begun four weeks after the beginning of GnRHa therapy, that is, at the time of the second Decapeptyl injection.
Hot flashes were recorded by the subjects daily on a control form laid out for a 24-hour day, beginning with the first day of Decapeptyl therapy.
The mean number of hot flashes per 24 hours in weeks 3 and 4 of the GnRHa treatment (that is, before the beginning of the 14α,15α-methylene-1,3,5(10),8-tetraene-3,17α-diol therapy) was assumed to be 100%, for the sake of better comparability. The number of hot flashes during additional therapy with 14α,15α-methylene-1,3,5(10),8-tetraene-3,17α-diol was indicated as a percentage of the starting value. For five subjects, a measurement of skin temperature over 24 hours was done, for the sake of objectivity.
At intervals of four weeks, immediately prior to the injection of Decapeptyl-Depot, blood was drawn to determine LI-I, FSH, prolactin, testosterone, DHEAS, SHBG, free testosterone, estradiol, and progesterone. Blood specimens were also taken for determining a simple blood count, SGOT, SGPT, creatinine, Na, K, Ca, albumin, glucose and CA 125.
For long-term treatment, bone density was monitored at intervals of 6 to 12 months. In seven subjects, trials of withdrawal from 14α,15α-methylene-1,3,5(10),8-tetraene-3,17α-diol over 4 to 8 weeks each were done.

The subject of data set [3] is test subjects with fibroid tumors of the uterus. The experiment in a line: Clinical study in women with fibroid tumors of the uterus under GnRHa therapy. In kind it is in vivo, human. As to the method: as §4
Test subjects aged 22 to 46 with fibroid tumors of the uterus were given the same doses.

For data set [4], the system named is males with prostate-Ca under GnRHa therapy. Put plainly: Observation in males with prostate-Ca under GnRHa therapy. In kind it is in vivo, human.
The subject of data set [5] is female test subjects treated with Decapeptyl-Depot for endometriosis. The experiment in a line: Clinical study in women with endometriosis under GnRHa therapy (Decapeptyl-Depot). The data set is classed as in vivo, human. This is another data set of the same source.

In the case of `C[C@]12CCC3=C(CCc4cc(O)ccc43)[C@@]13C[C@H]3C[C@H]2O` [14α,15α-methylene-1,3,5(10),8-tetraene-3,17α-diol], the “proliferation effect in the prostates (increase in the moisture content)” value with prostate of male rats (male rats, 0.04 mg/kg body weight subcutaneously daily over 21 days, FIG. 1) is recorded as “scarcely any proliferation effect”. The “undesirable estrogen side effects” value in the data set with prostate of male rats (male rats, prostate and seminal vesicles, 0.04 mg/kg s.c. daily 21 days) was “no undesirable estrogen side effects”. In data set [1] (male rats, 0.04 mg/kg body weight subcutaneously daily over 21 days, FIG. 2), the “proliferation effect on the seminal vesicles (increase in the moisture content)” value is “no profileration effect”. The bleeding result in data set [2] (1 to 2 mg daily as vaginal suppository in addition to Decapeptyl-Depot) is “No bleeding occurred”. Further, the “values for LH, FSH, prolactin, testosterone, DHEAS, SHBG, estradiol, and progesterone” value in data set [2] (1 to 2 mg daily vaginal suppository in addition to Decapeptyl-Depot) was “remained low and unchanged”. In addition, in data set [2] (add-on to Decapeptyl-Depot), the “Ca 125 values” was “did not rise”; the body weight result is given as “no change”; the intracyclic bleeding result is “No intracyclic bleeding occurred”; the “liver values, blood count or electrolytes” value is “No changes”. Moreover, the endometriosis-specific complaints entry in data set [2] (during the treatment) is listed as “did not recur”. Besides, the bone density entry in data set [2] (over one year, four subjects monitored) is “did not change significantly”. Moreover, the blood pressure entry in data set [2] (subjects with borderline RR (n=4, RR around 140/80)) is on record as “around 110/70”. Besides, the “hot flashes in withdrawal trial” value in data set [2] (withdrawal over 4 to 8 weeks, seven subjects) is on record as “increase in hot flashes, within three weeks back to the starting values”. Also, the “course of the decrease in uterine volume versus subjects not receiving the compound” value in data set [3] (Decapeptyl-Depot plus add-on) is “identical”. Besides, the “influence on the effect of the GnRHa therapy on the lower organs” value in data set [3] (supplementary treatment) is recorded as “did not influence”. Moreover, in data set [3] (within three months, Decapeptyl-Depot plus add-on), the uterus size is reported as 40±10 % of the starting value. The “hot flashes tripped by GnRHa therapy” value in data set [4] is “same result”. Also, the “complaints of undesirable estrogen-related side effects” value in data set [5] (all subjects) is listed as “complaint-free”. Besides, the “hot flashes tripped by GnRHa therapy” value in data set [5] (treated females, endometriosis or fibroid tumors of the uterus) is “effectively eliminated”.

As to `C[C@]12CC[C@@H]3c4ccc(O)cc4CC[C@H]3[C@@H]1CC[C@@H]2O` [estradiol, 17β-estradiol, reference compound], in the data set on prostate of male rats (rat, in vivo, sc, 0.04 mg/kg), the “proliferation effect in the prostates (increase in the moisture content)” value was “comparatively large proliferation effect” and the “undesirable estrogen side effects” value was “estrogen side effects of course result”. Also, the “proliferation effect on the seminal vesicles (increase in the moisture content)” value in data set [1] (rat, in vivo, sc, 0.04 mg/kg) is recorded as “comparatively large proliferation effect”.

The values above are taken from patent US20040167111A1, “Pharmaceutical preparations for treating side effects during and/or after GnRHa therapy” (priority 1998, published 2004).
